TGI and GI50 data for ten molecules are collected here from PubChem BioAssay (NCI).

Test systems include SK-OV-3 ovarian; ACHN renal; UACC-257 melanoma; SK-MEL-28 melanoma; HL-60(TB) leukemia; RXF 393 renal; SW-620 colon; NCI-H23 lung; UO-31 renal; NCI-H226 lung.
Holding throughout (test): NCI tumour cell line growth inhibition, 48 h

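Cells were grown in 96-well plates and exposed to each compound for 48 hours at five concentrations; endpoints were interpolated linearly between bracketing concentrations, or set to the highest concentration if not reached. At the GI50, growth is halved. TGI is the concentration that stops growth completely.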

On to `COc1nc(NC2OCC(OC(C)=O)C(OC(C)=O)C2OC(C)=O)c(N=CC=Nc2c(NC3OCC(OC(C)=O)C(OC(C)=O)C3OC(C)=O)nc(OC)n(C)c2=O)c(=O)n1C` (stereo unspecified), for which the TGI with SK-OV-3 ovarian, in the test on ACHN renal, in the test on UACC-257 melanoma, in the test on SK-MEL-28 melanoma, with HL-60(TB) leukemia and with RXF 393 renal was over 100 µM in each case. The TGI in the test on SW-620 colon, in the test with NCI-H23 lung and in the test on UO-31 renal was over 100 µM throughout.
On to `Cc1cccc(NC(=O)CC(=O)N2N=C(N(CCC#N)c3ccc(Cl)cc3)CC2c2ccccc2)c1` (stereo unspecified), for which the TGI in the test on ACHN renal, in the test on UACC-257 melanoma, with SK-MEL-28 melanoma, with HL-60(TB) leukemia, in the test with RXF 393 renal and with SW-620 colon was over 100 µM each time. Also, the TGI in the test on NCI-H23 lung and in the test on UO-31 renal was over 100 µM in each case.
Take `CC(C)(C)C#CC1=C(Br)C(=O)OC1`: the GI50 was over 100 µM with SK-OV-3 ovarian; 0.266 µM in the test on ACHN renal; 0.886 µM with UACC-257 melanoma; 1.12 µM in the test on SK-MEL-28 melanoma; 2.44 µM in the test on RXF 393 renal; 23 µM in the test with NCI-H226 lung. Further, the GI50 is 2.16 µM in the test with NCI-H23 lung and 0.9 µM in the test on UO-31 renal. Moreover, the TGI in the test on SK-OV-3 ovarian was over 100 µM; in the test with UACC-257 melanoma, 4.39 µM; with SK-MEL-28 melanoma it was 67 µM; with RXF 393 renal, 6.8 µM; in the test on SW-620 colon, over 24.9 µM; in the test with NCI-H226 lung, 68.1 µM. In addition, the figures for the TGI with NCI-H23 lung and in the test with UO-31 renal were 19 µM and 3.22 µM, respectively.
`C=CCc1c2c(c(OC)c3ccoc13)C(=O)/C(=C/c1ccccc1OC)O2`: the GI50 is 5.45 µM in the test with SK-OV-3 ovarian; 4.33 µM in the test on ACHN renal; 6.41 µM in the test with UACC-257 melanoma; 5.21 µM in the test on SK-MEL-28 melanoma; 2.47 µM in the test with RXF 393 renal; 4.24 µM in the test on SW-620 colon. Also, the GI50 was 3.22 µM with NCI-H226 lung, 2.88 µM in the test on NCI-H23 lung and 4.98 µM in the test on UO-31 renal. Moreover, the TGI is 35.1 µM in the test on SK-OV-3 ovarian; over 100 µM in the test with ACHN renal; over 100 µM in the test on UACC-257 melanoma; over 100 µM with SK-MEL-28 melanoma; 6.92 µM in the test with RXF 393 renal; over 100 µM in the test with SW-620 colon. Besides, the TGI was 20.5 µM with NCI-H226 lung, 14.7 µM with NCI-H23 lung and over 100 µM with UO-31 renal.
For `CC1SC(c2c(Cl)cccc2Cl)N(NC(=O)c2[nH]c3ccc(F)cc3c2-c2ccccc2)C1=O` (stereo unspecified), the GI50 with SK-OV-3 ovarian was 1.95 µM; in the test on ACHN renal it was 2.82 µM; in the test on UACC-257 melanoma, 4.69 µM; in the test on SK-MEL-28 melanoma, 3.57 µM; with HL-60(TB) leukemia, 67.5 µM; with RXF 393 renal, 1.73 µM. For the same molecule, the GI50 was 3.19 µM with SW-620 colon, 2.73 µM in the test on NCI-H23 lung and 2.13 µM with UO-31 renal. Also, the TGI was 4.2 µM in the test on SK-OV-3 ovarian; 8.35 µM in the test with ACHN renal; 44 µM in the test with UACC-257 melanoma; 17.2 µM in the test with SK-MEL-28 melanoma; over 100 µM with HL-60(TB) leukemia; 4.12 µM with RXF 393 renal. The TGI was 11.2 µM in the test on SW-620 colon, 10.1 µM in the test on NCI-H23 lung and 8.61 µM in the test with UO-31 renal.
Consider `O=C(O)c1ccc([Se][Se]c2ccc(C(=O)O)cc2)cc1`, for which the TGI was 55.6 µM with SK-MEL-28 melanoma; 52.9 µM in the test with RXF 393 renal; over 100 µM in the test with SW-620 colon; 76.5 µM with NCI-H226 lung; 37.6 µM in the test on NCI-H23 lung; 77.7 µM with UO-31 renal.
As for `Cc1sc(C(=O)Nc2cc(C(=O)NCCCN(C)C)n(C)c2)cc1NC(=O)CCCN1C(=O)c2cccc3cccc(c23)C1=O`, the GI50 with SK-OV-3 ovarian, in the test with ACHN renal, with SK-MEL-28 melanoma, in the test with HL-60(TB) leukemia, with SW-620 colon and in the test on NCI-H226 lung was over 100 µM throughout. For the same molecule, the GI50 in the test with NCI-H23 lung and in the test on UO-31 renal was over 100 µM throughout. Further, the TGI with SK-OV-3 ovarian, with ACHN renal, with SK-MEL-28 melanoma, in the test with HL-60(TB) leukemia, in the test on SW-620 colon and in the test with NCI-H226 lung was over 100 µM throughout. Moreover, the TGI with NCI-H23 lung and in the test on UO-31 renal was over 100 µM throughout.
As for `CCCCCn1c(=N)n(CC(O)COc2cccc(C)c2)c2ccccc21` (stereo unspecified), the GI50 with SK-OV-3 ovarian is 11.8 µM; in the test on ACHN renal, 8.85 µM; in the test with UACC-257 melanoma it was 3.36 µM; with SK-MEL-28 melanoma, 3.95 µM; with HL-60(TB) leukemia, 2.15 µM; in the test on SW-620 colon, 4.26 µM. In addition, the GI50 was 10.3 µM in the test on NCI-H226 lung, 6.87 µM in the test with NCI-H23 lung and 4.03 µM in the test on UO-31 renal. For the same molecule, the TGI in the test on SK-OV-3 ovarian is 24.2 µM; in the test with ACHN renal, 23.8 µM; in the test on UACC-257 melanoma, 12 µM; in the test on SK-MEL-28 melanoma it was 14.7 µM; in the test on HL-60(TB) leukemia it was 4.9 µM; with SW-620 colon it was 18.3 µM. Also, the results for the TGI with NCI-H226 lung, with NCI-H23 lung and with UO-31 renal were 28 µM, 22.5 µM and 17.6 µM, respectively.
Regarding `O=C([O-])c1ccccc1Nc1ccccn1.O=C([O-])c1ccccc1Nc1ccccn1.[Ni+2]`, the GI50 in the test on SK-OV-3 ovarian was over 100 µM; in the test with ACHN renal, over 100 µM; in the test with UACC-257 melanoma, over 100 µM; with SK-MEL-28 melanoma, 58.9 µM; in the test with RXF 393 renal, over 100 µM; in the test on SW-620 colon it was over 100 µM. Moreover, the GI50 in the test with NCI-H226 lung is 33.9 µM; with NCI-H23 lung, over 100 µM; in the test with UO-31 renal, 48.9 µM. For the same molecule, the TGI in the test with SK-OV-3 ovarian, with ACHN renal, in the test on UACC-257 melanoma, with SK-MEL-28 melanoma, in the test with RXF 393 renal and in the test on SW-620 colon was over 100 µM each time. Moreover, the TGI in the test with NCI-H226 lung, in the test on NCI-H23 lung and in the test with UO-31 renal was over 100 µM in each case.
Regarding `COc1cc(C2c3cc4c(cc3OC(N3CCCC3)C2C)OCO4)cc(OC)c1OC` (stereo unspecified), the TGI is 12.2 µM in the test on SK-OV-3 ovarian; 38.3 µM in the test on ACHN renal; 49 µM in the test on UACC-257 melanoma; over 100 µM in the test on SK-MEL-28 melanoma; 2.41 µM with RXF 393 renal; over 33.9 µM in the test with SW-620 colon. Also, the values for the TGI in the test with NCI-H226 lung, in the test on NCI-H23 lung and with UO-31 renal were 3.19 µM, 7.27 µM and 41.2 µM, respectively.
